We go through four substances from patent publication US20060211651A1, “Persulfated oligosaccharide acting on selectins and chemokine” (Taisho Pharmaceutical Co., Ltd., priority 2002, published 2006).

One may read the Kd as the concentration at which binding is half-saturated. A higher Kd goes with a looser complex. The koff is the first-order rate constant of dissociation. Lower therefore signals a long-lived complex. By kon is commonly meant the rate constant with which the complex forms.

One assay deals with P-selectin-Ig. Put plainly: Binding inhibition assay (ELISA), biotinylated versican to P-selectin-Ig, various concentrations. Conditions: dose-dependent, FIG. 2 panel B. As to the method:
Inhibition assay of binding between versican and each of L-selectin, P-selectin and CD44 was performed as follows. First, each well on a 96 well flat bottom microtiter plate (Coster EIA/RIA plate No. 3690) was coated with L-selectin-Ig (3 μg/ml), P-selectin-Ig (4 μg/ml) or CD44-Ig (0.25 μg/ml) by a conventional procedure. […] The plate was incubated at room temperature for 2 hours. Thereafter, the plate was washed with the buffer A, and enzyme-linked immunosorbent assay was performed in the same manner as described in Kawashima, H. et al. [J. Biol. Chem., 275, 35448-35456 (2000)]. Binding was determined by measuring absorbance at 620 nm using alkaline phosphatase-conjugated streptavidin and Blue Phos™ substrate.
(In an ELISA, binding on a coated surface is turned into a signal by an enzyme label.)

The target in another assay is T1, monomeric L-selectin (Homo sapiens, UniProt P14151).
T1 construct: purchased Genzyme-Techne
T1 sequence (P14151 39-332 limits assumed): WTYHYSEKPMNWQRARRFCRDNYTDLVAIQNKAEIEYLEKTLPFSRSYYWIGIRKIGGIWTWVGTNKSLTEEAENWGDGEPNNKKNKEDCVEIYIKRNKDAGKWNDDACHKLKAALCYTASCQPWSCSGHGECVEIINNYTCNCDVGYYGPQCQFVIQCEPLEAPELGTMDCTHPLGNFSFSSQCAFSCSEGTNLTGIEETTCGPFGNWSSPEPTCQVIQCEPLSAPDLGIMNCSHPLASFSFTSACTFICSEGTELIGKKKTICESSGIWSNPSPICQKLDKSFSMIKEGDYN
Put plainly: BIAcore surface plasmon resonance, immobilized glycosaminoglycan vs monomeric L-selectin. The class given is binding. The conditions noted are these: for Kd / koff / kon: L-selectin, GAG immobilized, 25° C.; for interaction with immobilized glycosaminoglycan (sensorgram): monomeric L-selectin. The procedure:
Affinity kinetics of the interaction between various CS/DS chains and each of L-selectin, P-selectin, CD44 and chemokine were examined by surface plasmon resonance using BIAcore™ biosensor [manufactured by BIAcore AB].
All experiments were performed at 25° C. At stages of washing and dissociation, buffer C (20 mM HEPES-NaOH, 0.15M NaCl, 1 mM CaCl2, 1 mM MgCl2, pH6.8) was used as a running buffer.
First, about 1.8 to 2.0 kiloresonance unit (1 kiloresonance unit=1 ng/mm^2) of streptavidin were covalently immobilized onto B1 sensor chip via a primary amine group using an amine coupling kit [manufactured by Amercham-Bioscience] according to the instruction provided by the manufacturer. The remaining activated groups were blocked with 150 μl of 1M ethanolamine-HCl (pH8.5). Then, each glycosaminoglycan which had been biotinylated at a reducing end was injected to a sensor tip surface by using EZ-link™ biotin-LC-hydrazide [manufactured by Pierce] so as to obtain about 150 resonance unit of an immobilization level, according to the method of Sadir et al. [J. Biol. Chem., 276, 8288-8296 (2001); all teachings of which are hereby incorporated by reference].
Binding assay was performed by injecting continuously each of various concentrations of secondary lymphoid tissue chemokine, γ-interferon inducible protein-10, stromal cell-derived factor-1β, monomeric L-selectin [manufactured by Genzyme-Techne], monomeric P-selectin [manufactured by Genzyme-Techne] and monomeric CD44, to a glycosaminoglycan-coupled sensor tip at a flow rate of 30 μl/min for 0 to 90 seconds, and then injecting a running buffer thereto. A response in resonance unit was recorded as a function of a time.
A sensor tip surface was regenerated with 300 μl of 1 M NaCl when chemokine or CD44 was used, or regenerated with 300 μl of 1 M NaCl, and additional 100 μl of 50 mM EDTA (pH8.0), when selectin was used. As a result of regeneration of a sensor tip surface, a remarkable change in a baseline was not observed.
An affinity kinetic parameter was determined by BIAevaluation 3.0 software [manufactured by Pharmacia Biosensor] using a single site binding model. […] In FIG. 6 and Table 3, SLC denotes secondary lymphoid tissue chemokin, IP-10 denotes γ-interferon inducible protein-10, SDF-1β denotes stromal cell-derived factor-1β, CS E denotes chondroitin sulfate E, and CS A denotes chondroitin sulfate A. In addition, in Table 3, Kd value for the interaction between monomeric CD44 and chondroitin sulfate E is a value calculated from a binding amount at equilibrium, and Kd value of the interaction between CD44 and hyaluronic acid is a value calculated using CD44-Ig.
A general note: In SPR one partner is held on a chip, and binding of the other changes the refractive index at the surface.

Take chondroitin polysulfate [CPS]: the “inhibition of binding between biotinylated versican and P-selectin-Ig” value in the assay on P-selectin-Ig was “inhibited”. Also, at monomeric L-selectin, the Kd came out at 47.7 nM, the koff is 0.000366 s⁻¹ and the kon is 7680 M⁻¹ s⁻¹.

chondroitin sulfate A [CS A]: the “inhibition of binding between biotinylated versican and P-selectin-Ig” value in the assay with P-selectin-Ig is “not inhibited”. At monomeric L-selectin, the “interaction with immobilized glycosaminoglycan (sensorgram)” value is “did not interact”.

Consider chondroitin sulfate E [CS E], for which the “inhibition of binding between biotinylated versican and P-selectin-Ig” value in the assay with P-selectin-Ig is “inhibited”. Besides, at monomeric L-selectin, the Kd stood at 21.2 nM, the off-rate constant (koff) was 0.000439 s⁻¹, the on-rate (kon) was determined as 20700 M⁻¹ s⁻¹ and the “interaction with immobilized glycosaminoglycan (sensorgram)” value was “bound”.

As for dermatan polysulfate [DPS], the “inhibition of binding between biotinylated versican and P-selectin-Ig” value in the assay with P-selectin-Ig is “inhibited”. At monomeric L-selectin, this substance displayed a koff of 0.000289 s⁻¹ and an on-rate constant (kon) of 13700 M⁻¹ s⁻¹.
